Assay results published in PubChem BioAssay AID248 (DTP/NCI, 2004).
Values joined by “and” are separate entries in the source; they are usually repeats but may differ in a detail not shown here. Equal values may be shown once. Inconclusive results and toxic doses are left out. No stated cut-off is given here; in the data, active means T/C of 150% or more; inactive means T/C below 125%.

Test system: L1210 leukemia ip in BDF1 mice, survival T/C
Experiment: NCI In Vivo Anticancer Drug Screen. Data for tumor model L1210 Leukemia (intraperitoneal) in B6D2F1 (BDF1) mice
Conditions: endpoint: mean survival time, higher = longer survival
Summary of the method: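 Antitumor effect is assessed in tumor-bearing animals. Survival in the compound arm is compared with a vehicle-dosed control arm and expressed as their quotient.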

[1] = dose: 100.0 mg/kg/injection, schedule: Q01DX001 (ip), vehicle: carboxymethylcellulose (CMC)
[2] = dose: 200.0 mg/kg/injection, schedule: Q01DX001 (ip), vehicle: carboxymethylcellulose (CMC)
[3] = dose: 100.0 mg/kg/injection, schedule: Q01DX001 (ip), vehicle: saline
[4] = dose: 100.0 mg/kg/injection, schedule: Q04DX003 (ip), vehicle: saline
[5] = dose: 200.0 mg/kg/injection, schedule: Q01DX001 (ip), vehicle: saline
[6] = dose: 200.0 mg/kg/injection, schedule: Q04DX003 (ip), vehicle: saline
[7] = dose: 400.0 mg/kg/injection, schedule: Q01DX001 (ip), vehicle: saline
[8] = dose: 400.0 mg/kg/injection, schedule: Q04DX003 (ip), vehicle: saline
[9] = dose: 100.0 mg/kg/injection, schedule: Q01DX009 (ip), vehicle: Klucel (hydroxypropylcellulose) (HPC)
[10] = dose: 100.0 mg/kg/injection, schedule: Q04DX003 (ip), vehicle: Klucel (hydroxypropylcellulose) (HPC)
[11] = dose: 200.0 mg/kg/injection, schedule: Q01DX009 (ip), vehicle: Klucel (hydroxypropylcellulose) (HPC)
[12] = dose: 200.0 mg/kg/injection, schedule: Q04DX003 (ip), vehicle: Klucel (hydroxypropylcellulose) (HPC)
[13] = dose: 400.0 mg/kg/injection, schedule: Q01DX009 (ip), vehicle: Klucel (hydroxypropylcellulose) (HPC)
[14] = dose: 400.0 mg/kg/injection, schedule: Q04DX003 (ip), vehicle: Klucel (hydroxypropylcellulose) (HPC)
[15] = dose: 100.0 mg/kg/injection, schedule: Q01DX001 (ip), vehicle: saline with Tween-80
[16] = dose: 200.0 mg/kg/injection, schedule: Q01DX001 (ip), vehicle: saline with Tween-80
[17] = dose: 100.0 mg/kg/injection, schedule: Q04DX003 (ip), vehicle: saline with Tween-80
[18] = dose: 200.0 mg/kg/injection, schedule: Q04DX003 (ip), vehicle: saline with Tween-80
[19] = dose: 400.0 mg/kg/injection, schedule: Q04DX003 (ip), vehicle: saline with Tween-80

Measured: T/C

COC1C(CO)OC(n2cnc3c(=O)[nH]c(N)nc32)C1O (centres undefined)
inactive: [1] 98 % of control | [2] 104 % of control | dose: 400.0 mg/kg/injection, schedule: Q01DX001 (ip), vehicle: carboxymethylcellulose (CMC) 114 % of control

CC(=O)Nc1ccc(S(=O)(=O)NC2CCCCC2)cc1
inactive: dose: 50.0 mg/kg/injection, schedule: Q01DX001 (ip), vehicle: Klucel (hydroxypropylcellulose) (HPC) 94 % of control | dose: 100.0 mg/kg/injection, schedule: Q01DX001 (ip), vehicle: Klucel (hydroxypropylcellulose) (HPC) 97 % of control | dose: 200.0 mg/kg/injection, schedule: Q01DX001 (ip), vehicle: Klucel (hydroxypropylcellulose) (HPC) 100 % of control

CC1(C)CC2(C)CC(=O)C1C(C(=O)O)C2C(=O)O (centres undefined)
inactive: [3] 98 % of control | dose: 100.0 mg/kg/injection, schedule: Q01DX009 (ip), vehicle: saline 93 % of control | [4] 96 % of control | [5] 90 % of control | dose: 200.0 mg/kg/injection, schedule: Q01DX009 (ip), vehicle: saline 93 % of control | [6] 91 % of control | [7] 91 % of control | dose: 400.0 mg/kg/injection, schedule: Q01DX009 (ip), vehicle: saline 92 % of control | [8] 89 % of control

CC1O/C(=N\O)C(C)O1 (centres undefined)
inactive: dose: 100.0 mg/kg/injection, schedule: Q01DX009 (ip), vehicle: carboxymethylcellulose (CMC) 95 % of control and 97 % of control | dose: 100.0 mg/kg/injection, schedule: Q04DX002 (ip), vehicle: carboxymethylcellulose (CMC) 106 % of control and 115 % of control | dose: 100.0 mg/kg/injection, schedule: Q04DX003 (ip), vehicle: carboxymethylcellulose (CMC) 93 % of control | dose: 200.0 mg/kg/injection, schedule: Q01DX009 (ip), vehicle: carboxymethylcellulose (CMC) 93 % of control and 95 % of control | dose: 200.0 mg/kg/injection, schedule: Q04DX002 (ip), vehicle: carboxymethylcellulose (CMC) 97 % of control and 102 % of control | dose: 200.0 mg/kg/injection, schedule: Q04DX003 (ip), vehicle: carboxymethylcellulose (CMC) 101 % of control | dose: 400.0 mg/kg/injection, schedule: Q01DX009 (ip), vehicle: carboxymethylcellulose (CMC) 93 % of control and 105 % of control | dose: 400.0 mg/kg/injection, schedule: Q04DX002 (ip), vehicle: carboxymethylcellulose (CMC) 95 % of control | dose: 400.0 mg/kg/injection, schedule: Q04DX003 (ip), vehicle: carboxymethylcellulose (CMC) 98 % of control

CSc1ccc(C(=NO)c2ccc(SC)cc2)cc1
inactive: [9] 95 % of control | [10] 101 % of control | [11] 103 % of control | [12] 94 % of control | [13] 95 % of control | [14] 103 % of control

CSc1ccc(N=Cc2ccc3c(c2)OCO3)cc1
inactive: dose: 50.0 mg/kg/injection, schedule: Q01DX009 (ip), vehicle: Klucel (hydroxypropylcellulose) (HPC) 103 % of control | [9] 97 % of control | [10] 102 % of control | [11] 99 % of control | [12] 107 % of control | [14] 94 % of control

CS(=O)(=O)c1nc(Cl)c(Cl)[nH]1
inactive: [15] 100 % of control | [16] 102 % of control | dose: 400.0 mg/kg/injection, schedule: Q01DX001 (ip), vehicle: saline with Tween-80 104 % of control

O=c1[nH]c2ccncc2c(=O)n1OS(=O)(=O)c1ccccc1
inactive: dose: 75.0 mg/kg/injection, schedule: Q01DX009 (ip), vehicle: Klucel (hydroxypropylcellulose) (HPC) 92 % of control | dose: 150.0 mg/kg/injection, schedule: Q01DX009 (ip), vehicle: Klucel (hydroxypropylcellulose) (HPC) 95 % of control | dose: 300.0 mg/kg/injection, schedule: Q01DX009 (ip), vehicle: Klucel (hydroxypropylcellulose) (HPC) 94 % of control

CC[CH2][Sn]([Br])([CH2]CC)[CH2]CC
inactive: dose: 1.56 mg/kg/injection, schedule: Q01DX009 (ip), vehicle: saline 95 % of control | dose: 3.12 mg/kg/injection, schedule: Q01DX009 (ip), vehicle: saline 102 % of control

COc1cc(I)cc(OC)c1OC
inactive: [17] 97 % of control | [18] 94 % of control | [19] 100 % of control

O=C1C(=O)c2ccccc2C(O)=C1CN1CCC1
inactive: [15] 95 % of control | [16] 95 % of control

O=C(Nc1cc(C(F)(F)F)ccc1Cl)c1cccc(C(=O)Nc2cc(C(F)(F)F)ccc2Cl)c1
inactive: dose: 12.5 mg/kg/injection, schedule: Q04DX003 (ip), vehicle: saline with Tween-80 93 % of control | dose: 25.0 mg/kg/injection, schedule: Q04DX003 (ip), vehicle: saline with Tween-80 96 % of control | dose: 50.0 mg/kg/injection, schedule: Q04DX003 (ip), vehicle: saline with Tween-80 95 % of control | [18] 87 % of control

CC(C)C(CCCC(=O)O)C(=O)O (centres undefined)
inactive: dose: 50.0 mg/kg/injection, schedule: Q01DX001 (ip), vehicle: carboxymethylcellulose (CMC) 96 % of control | [1] 96 % of control | [2] 96 % of control

Cc1cc(-c2ccc(N3C(=O)C=CC3=O)c(C)c2)ccc1N1C(=O)C=CC1=O
inactive: [10] 105 % of control | [12] 100 % of control

NCC1OC(OC2C(N)CC(N)C(O)C2OC2OC(CO)C(O)C2O)C(N)C(O)C1O (centres undefined)
inactive: dose: 75.0 mg/kg/injection, schedule: Q01DX001 (ip), vehicle: saline 92 % of control | dose: 75.0 mg/kg/injection, schedule: Q01DX009 (ip), vehicle: saline 98 % of control | [3] 100 % of control | [4] 100 % of control | dose: 150.0 mg/kg/injection, schedule: Q01DX001 (ip), vehicle: saline 97 % of control | dose: 150.0 mg/kg/injection, schedule: Q01DX009 (ip), vehicle: saline 96 % of control | [5] 100 % of control | [6] 95 % of control | dose: 300.0 mg/kg/injection, schedule: Q01DX001 (ip), vehicle: saline 93 % of control | dose: 300.0 mg/kg/injection, schedule: Q01DX009 (ip), vehicle: saline 98 % of control | [7] 100 % of control | [8] 95 % of control

Cc1[nH]ncc1Br
inactive: [17] 98 % of control | [18] 92 % of control | [19] 103 % of control

CC(C)NNC(=O)c1ccncc1
inactive: dose: 25.0 mg/kg/injection, schedule: Q04DX003 (ip), vehicle: saline 107 % of control | dose: 50.0 mg/kg/injection, schedule: Q04DX003 (ip), vehicle: saline 102 % of control | [4] 96 % of control | [6] 98 % of control | [8] 104 % of control

COc1ccc([N+](=O)[O-])cc1NC(=S)NC(=O)c1cccc(Br)c1
inactive: [9] 92 % of control | [11] 92 % of control | [13] 97 % of control

Nc1nnnc2nc[nH]c12
inactive: dose: 12.5 mg/kg/injection, schedule: Q01DX Z (ip), vehicle: carboxymethylcellulose (CMC) 100 % of control | dose: 25.0 mg/kg/injection, schedule: Q01DX Z (ip), vehicle: carboxymethylcellulose (CMC) 93 % of control

CCCCCCCCn1nnnc1-c1nnn(C)n1
inactive: [9] 106 % of control | [11] 104 % of control | [13] 101 % of control

Cc1ccc(NC(=S)N(C)C)cc1C
inactive: [9] 95 % of control | [11] 101 % of control | [13] 104 % of control
